Assay results from patent US20080249400A1, “Intraoperative Imaging Of Hepatobiliary Structures” (University of Rochester Medical Center, priority 2006, published 2008).

Assays:
liver [1] = test: Liver visualization by fluorescent dye in adult pig model after RF thermal ablation (SPY imaging system); type: in vivo; settings: intravenous bolus, liver subjected to RF ablation
liver [2] = test: Rat liver visualized by laser excitation light delivered by fiber optics through a laparoscope; type: in vivo; settings: male Sprague-Dawley rat
[3] = cited from earlier work
mammals = settings: used in mammals; cited from earlier work

Molecule	fluorescence of liver tissue (perfusion) under laser excitation (liver [1])	fluorescence of liver under laparoscopic laser excitation (liver [2])	distribution ([3]; after intravenous injection, with normal vascular permeability)	metabolism ([3]; in the body)	enterohepatic recirculation ([3]; in vivo)	excretion route ([3]; in vivo)	intestinal reabsorption ([3]; in vivo)	toxicity in mammals (mammals)
CC1(C)C(/C=C/C=C/C=C/C=C2\N(CCCCS(=O)(=O)O)c3ccc4ccccc4c3C2(C)C)=[N+](CCCCS(=O)(=O)[O-])c2ccc3ccccc3c21 [ICG, indocyanine green]	The lighter areas to the right and bottom sides of the photos indicate normal liver tissue	The brightly fluorescing structure is the liver	remains intravascular	not metabolized in the body	does not undergo enterohepatic recirculation	excreted exclusively by the liver	not reabsorbed from the intestine	low evidence of toxicity
N=C(N)c1ccc(/C=C/c2ccc(C(=N)N)cc2O)cc1 [Fluorogold]	–	–	–	–	–	–	–	low evidence of toxicity
Fast Blue	–	–	–	–	–	–	–	low evidence of toxicity
